This passage reports Activity results from ChEMBL document CHEMBL4334438, “Discovery of novel glycogen synthase kinase-3α inhibitors: Structure-based virtual screening, preliminary SAR and biological evaluation for treatment of acute myeloid leukemia” (Eur J Med Chem, 2019).

The structures appear in SMILES notation.

The target of assay [1] is Serine/threonine-protein kinase 4 (Homo sapiens) (UniProt Q13043). Nature of the assay: Inhibition of recombinant full-length human MST1 assessed as residual activity at 1 uM using KKSRGDYMTMQIG as substrate measured after 40 mins in presence of [gamma33P]ATP by scintillation counting method relative to control.
Assay [2] addresses Proto-oncogene tyrosine-protein kinase Src (Homo sapiens) (UniProt P12931). The assay is described as follows: Inhibition of recombinant human C-Src assessed as residual activity at 1 uM KVEKIGEGTYGVV as substrate incubated 40 mins in presence of [gamma-33ATP] by scintillation counting based radiometry assay relative to control.
Assay [3] concerns the target Insulin receptor (Homo sapiens) (UniProt P06213). Nature of the assay: Inhibition of human activated IR (1005 to 1310 residues) assessed as residual activity at 1 uM using KKKSPGEYVNIEFG as substrate after 40 mins by [gamma-33ATP] radiometric assay relative to control.
The subject of assay [4] is Ribosomal protein S6 kinase beta-1 (Homo sapiens), P23443 [T412E]. The assay is described as follows: Inhibition of recombinant human p70S6K T412E mutant (1 to 421 residues) assessed as residual activity at 1 uM using KKRNRTLTV as substrate measured after 40 mins in presence of [gamma33P]ATP by scintillation counting method relative to control.
Assay [5] addresses MAP/microtubule affinity-regulating kinase 3 (Homo sapiens) (UniProt P27448). Nature of the assay: Inhibition of recombinant full length human MARK3 assessed as residual activity at 1 uM using KKKVSRSGLYRSP as substrate incubated for 40 mins in presence of [gamma-33ATP by scintillation counting based radiometry assay relative to control.
Assay [6] addresses G protein-coupled receptor kinase 5 (Homo sapiens) (UniProt P34947). Nature of the assay: Inhibition of recombinant full length human GRK5 assessed as residual activity at 1 uM using casein as substrate at 40 mins in presence of [gamma-33ATP] by scintillation counting based radiometry assay relative to control.
Assay [7] deals with Serine/threonine-protein kinase mTOR (Homo sapiens) (UniProt P42345). Nature of the assay: Inhibition of recombinant full-length human mTOR assessed as residual activity at 1 uM measured after 40 mins in presence of [gamma33P]ATP by scintillation counting method relative to control.
Assay [8] is filed under the species Homo sapiens. Nature of the assay: Inhibition of recombinant full-length human PI3K p120gamma R459Q mutant at 1 uM assessed as residual activity at 1 uM using phosphatidylinositol-4, 5-bisphosphate as substrate measured after 40 mins by fluorescence assay.
Assay [9] deals with Tyrosine-protein kinase Lck (Homo sapiens) (UniProt P06239). The assay is described as follows: Inhibition of recombinant full length human LCK activated assessed as residual activity at 1 uM using KVEKIGEGTYGVVYK as substrate after 40 mins in presence of [gamma-33ATP] by scintillation counting based radiometry assay relative to control.
For assay [10], the species on record is Homo sapiens. Nature of the assay: Inhibition of recombinant full length human PRAK R291E mutant assessed as residual activity at 1 uM using KKLRRTLSVA as substrate measured after 40 mins in presence of [gamma33P]ATP by scintillation counting method relative to control.
Assay [11] has as its target Mitogen-activated protein kinase kinase kinase kinase 1 (Homo sapiens) (UniProt Q92918). Nature of the assay: Inhibition of human HPK1 (1 to 346 residues) assessed as residual activity at 1 uM using myelin basic protein as substrate after 40 mins by [gamma-33ATP] radiometric assay relative to control.
For assay [12], the target named is Cyclin-dependent kinase 1/cyclin B1 (Homo sapiens) (UniProt P06493+P14635). The assay is described as follows: Inhibition of recombinant full length human CDK1/CyclinB assessed as residual activity at 1 uM using Histone H1 as substrate incubated for 40 mins in presence of [gamma-33ATP] by scintillation counting based radiometry assay relative to control. It is filed as protein-complex assay.

In assay [13] the target is Phosphatidylinositol 4-phosphate 3-kinase C2 domain-containing subunit alpha (Homo sapiens) (UniProt O00443). The assay is described as follows: Inhibition of recombinant human PI3KC2alpha (299 to end residues) at 1 uM assessed as residual activity at 1 uM using phosphatidylinositol as substrate measured after 40 mins by HTRF assay. On the technique in general: Time-resolved FRET reads energy transfer from a long-lived donor to a nearby acceptor.

The target in assay [14] is Testis-specific serine/threonine-protein kinase 3 (Homo sapiens) (UniProt Q96PN8). The assay is described as follows: Inhibition of recombinant full-length human TSSK3 at 1 uM assessed as residual activity at 1 uM using AMARAASAAALARRR as substrate measured after 40 mins in presence of [gamma33P]ATP by scintillation counting method relative to control.
For assay [15], the target named is Bone morphogenetic protein receptor type-1B (Homo sapiens) (UniProt O00238). Nature of the assay: Inhibition of human ALK6 (148 to end residues) assessed as residual activity at 1 uM using casein as substrate incubated for 40 mins in presence of [gamma-33ATP] by scintillation counting based radiometry assay relative to control.
For assay [16], the target named is Tyrosine-protein kinase Yes (Homo sapiens) (UniProt P07947). Nature of the assay: Inhibition of recombinant full-length human Yes at 1 uM assessed as residual activity at 1 uM using poly(Glu, Tyr) 4:1 as substrate measured after 40 mins in presence of [gamma33P]ATP by scintillation counting method relative to control.
Assay [17] deals with G protein-coupled receptor kinase 6 (Homo sapiens) (UniProt P43250). Nature of the assay: Inhibition of recombinant full length human GRK6 assessed as residual activity at 1 uM using casein as substrate at 40 mins in presence of [gamma-33ATP] by scintillation counting based radiometry assay relative to control.
Assay [18] concerns the target cAMP-dependent protein kinase catalytic subunit PRKX (Homo sapiens) (UniProt P51817). Nature of the assay: Inhibition of recombinant human full length PrKX assessed as residual activity at 1 uM using RRRLSFAEPG as substrate measured after 40 mins in presence of [gamma33P]ATP by scintillation counting method relative to control.
Assay [19] deals with CDK7/Cyclin H/MNAT1 (Homo sapiens) (UniProt P51946+P50613+P51948). The assay is described as follows: Inhibition of recombinant full length human CDK7/cyclinH/MAT1 assessed as residual activity at 1 uM using peptide as substrate incubated for 40 mins in presence of [gamma-33ATP] by scintillation counting based radiometry assay relative to control. The format is protein-complex assay.

Assay [20] concerns the target Ribosomal protein S6 kinase alpha-5 (Homo sapiens) (UniProt O75582). Nature of the assay: Inhibition of recombinant human MSK1 (2 to end residues) assessed as residual activity at 1 uM using GRPRTSSFAEGKK as substrate measured after 40 mins in presence of [gamma33P]ATP by scintillation counting method relative to control.
Assay [21] deals with Serine/threonine-protein kinase WNK2 (Homo sapiens) (UniProt Q9Y3S1). The assay is described as follows: Inhibition of human WNK2 (166 to 489 residues) assessed as residual activity at 1 uM using myelin basic protein as substrate measured after 40 mins in presence of [gamma33P]ATP by scintillation counting method relative to control.
Assay [22] concerns the target NT-3 growth factor receptor (Homo sapiens) (UniProt Q16288). Nature of the assay: Inhibition of human TrkC (510 to end residues) assessed as residual activity at 1 uM using GEEPLYWSFPAKKK as substrate measured after 40 mins in presence of [gamma33P]ATP by scintillation counting method relative to control.

Chain of Ribosomal protein S6 kinase alpha-5 (Homo sapiens) (O75582 whole entry, looked up, the tested form may be a part): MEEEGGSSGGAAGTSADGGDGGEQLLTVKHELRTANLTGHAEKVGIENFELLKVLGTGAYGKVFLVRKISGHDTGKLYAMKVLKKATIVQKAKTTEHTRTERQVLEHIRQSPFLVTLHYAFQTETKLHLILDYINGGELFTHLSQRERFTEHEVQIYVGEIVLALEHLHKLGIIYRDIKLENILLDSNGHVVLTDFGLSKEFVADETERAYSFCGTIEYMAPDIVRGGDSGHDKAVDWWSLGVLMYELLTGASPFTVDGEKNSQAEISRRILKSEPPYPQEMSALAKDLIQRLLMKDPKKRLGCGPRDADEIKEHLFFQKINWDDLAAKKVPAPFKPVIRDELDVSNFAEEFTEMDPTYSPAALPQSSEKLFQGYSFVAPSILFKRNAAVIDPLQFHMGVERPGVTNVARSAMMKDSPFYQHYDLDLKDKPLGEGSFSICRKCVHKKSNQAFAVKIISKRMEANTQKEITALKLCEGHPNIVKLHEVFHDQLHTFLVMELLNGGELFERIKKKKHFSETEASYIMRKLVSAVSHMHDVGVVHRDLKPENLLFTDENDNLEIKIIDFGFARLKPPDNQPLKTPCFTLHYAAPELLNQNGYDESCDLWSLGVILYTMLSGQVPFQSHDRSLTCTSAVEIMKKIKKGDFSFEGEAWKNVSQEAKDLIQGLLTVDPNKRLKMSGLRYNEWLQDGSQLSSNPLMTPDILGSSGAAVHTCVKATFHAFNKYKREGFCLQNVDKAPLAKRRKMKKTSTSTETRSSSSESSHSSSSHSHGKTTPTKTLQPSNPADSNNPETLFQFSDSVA
Chain of Serine/threonine-protein kinase WNK2 (Homo sapiens) (Q9Y3S1 whole entry, the tested form may be a part): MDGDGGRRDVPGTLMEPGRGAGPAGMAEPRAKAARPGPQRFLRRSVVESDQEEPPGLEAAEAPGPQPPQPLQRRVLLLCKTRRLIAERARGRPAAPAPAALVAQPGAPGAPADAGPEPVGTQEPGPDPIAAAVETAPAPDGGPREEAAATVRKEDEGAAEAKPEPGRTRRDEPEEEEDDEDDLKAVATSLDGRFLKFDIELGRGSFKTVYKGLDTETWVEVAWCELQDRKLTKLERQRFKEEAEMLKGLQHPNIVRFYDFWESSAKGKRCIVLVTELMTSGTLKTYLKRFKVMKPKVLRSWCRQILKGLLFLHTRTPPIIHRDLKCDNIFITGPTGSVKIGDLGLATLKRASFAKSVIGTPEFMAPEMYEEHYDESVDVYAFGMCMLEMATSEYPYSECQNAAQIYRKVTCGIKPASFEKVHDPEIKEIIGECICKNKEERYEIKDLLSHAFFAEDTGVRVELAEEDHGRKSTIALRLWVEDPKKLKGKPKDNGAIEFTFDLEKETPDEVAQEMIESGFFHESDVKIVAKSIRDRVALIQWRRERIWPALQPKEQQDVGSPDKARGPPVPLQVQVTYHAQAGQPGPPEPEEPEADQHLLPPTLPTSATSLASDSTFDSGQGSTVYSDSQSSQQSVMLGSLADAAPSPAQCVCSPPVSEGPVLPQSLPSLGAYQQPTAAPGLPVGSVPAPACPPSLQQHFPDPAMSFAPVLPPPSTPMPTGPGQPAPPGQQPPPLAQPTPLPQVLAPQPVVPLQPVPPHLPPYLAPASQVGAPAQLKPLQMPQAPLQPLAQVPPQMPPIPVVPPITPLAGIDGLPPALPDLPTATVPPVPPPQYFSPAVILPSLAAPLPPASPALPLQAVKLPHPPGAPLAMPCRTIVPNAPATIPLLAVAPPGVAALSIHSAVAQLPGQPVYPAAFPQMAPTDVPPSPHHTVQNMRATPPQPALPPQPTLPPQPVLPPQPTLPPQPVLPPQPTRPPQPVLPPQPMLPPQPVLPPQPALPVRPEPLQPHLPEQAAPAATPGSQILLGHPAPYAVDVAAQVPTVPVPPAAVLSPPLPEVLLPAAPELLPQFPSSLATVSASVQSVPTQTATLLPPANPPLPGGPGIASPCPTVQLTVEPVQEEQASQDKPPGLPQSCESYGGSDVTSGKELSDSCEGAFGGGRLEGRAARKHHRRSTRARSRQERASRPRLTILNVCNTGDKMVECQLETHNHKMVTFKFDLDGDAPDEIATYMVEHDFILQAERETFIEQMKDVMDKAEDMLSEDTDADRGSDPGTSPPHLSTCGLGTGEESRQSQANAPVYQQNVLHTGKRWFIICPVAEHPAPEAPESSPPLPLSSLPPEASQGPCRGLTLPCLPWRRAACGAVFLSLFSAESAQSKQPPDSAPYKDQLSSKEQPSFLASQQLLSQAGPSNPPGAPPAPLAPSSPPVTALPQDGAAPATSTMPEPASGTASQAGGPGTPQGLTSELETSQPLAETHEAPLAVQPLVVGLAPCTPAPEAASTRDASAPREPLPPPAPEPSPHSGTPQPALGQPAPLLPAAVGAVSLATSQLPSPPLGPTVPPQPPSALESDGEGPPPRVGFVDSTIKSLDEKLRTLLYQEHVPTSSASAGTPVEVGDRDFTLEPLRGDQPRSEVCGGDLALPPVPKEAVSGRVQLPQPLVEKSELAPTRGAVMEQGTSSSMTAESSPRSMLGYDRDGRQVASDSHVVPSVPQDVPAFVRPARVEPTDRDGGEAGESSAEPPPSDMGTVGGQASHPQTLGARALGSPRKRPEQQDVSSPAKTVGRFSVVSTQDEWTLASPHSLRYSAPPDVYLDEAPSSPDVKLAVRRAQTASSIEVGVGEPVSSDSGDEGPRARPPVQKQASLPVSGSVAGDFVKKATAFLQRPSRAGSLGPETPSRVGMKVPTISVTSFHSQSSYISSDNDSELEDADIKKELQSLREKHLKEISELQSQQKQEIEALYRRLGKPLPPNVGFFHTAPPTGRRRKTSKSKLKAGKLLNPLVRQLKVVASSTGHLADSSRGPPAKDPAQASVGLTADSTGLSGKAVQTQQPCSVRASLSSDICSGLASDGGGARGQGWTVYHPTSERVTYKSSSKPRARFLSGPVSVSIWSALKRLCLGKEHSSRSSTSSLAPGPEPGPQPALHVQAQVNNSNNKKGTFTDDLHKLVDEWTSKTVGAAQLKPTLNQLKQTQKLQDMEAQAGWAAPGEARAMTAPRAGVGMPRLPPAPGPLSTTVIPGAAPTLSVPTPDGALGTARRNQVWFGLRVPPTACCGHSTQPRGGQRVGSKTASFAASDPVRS
Chain of Mitogen-activated protein kinase kinase kinase kinase 1 (Homo sapiens) (Q92918 whole entry, looked up, the tested form may be a part): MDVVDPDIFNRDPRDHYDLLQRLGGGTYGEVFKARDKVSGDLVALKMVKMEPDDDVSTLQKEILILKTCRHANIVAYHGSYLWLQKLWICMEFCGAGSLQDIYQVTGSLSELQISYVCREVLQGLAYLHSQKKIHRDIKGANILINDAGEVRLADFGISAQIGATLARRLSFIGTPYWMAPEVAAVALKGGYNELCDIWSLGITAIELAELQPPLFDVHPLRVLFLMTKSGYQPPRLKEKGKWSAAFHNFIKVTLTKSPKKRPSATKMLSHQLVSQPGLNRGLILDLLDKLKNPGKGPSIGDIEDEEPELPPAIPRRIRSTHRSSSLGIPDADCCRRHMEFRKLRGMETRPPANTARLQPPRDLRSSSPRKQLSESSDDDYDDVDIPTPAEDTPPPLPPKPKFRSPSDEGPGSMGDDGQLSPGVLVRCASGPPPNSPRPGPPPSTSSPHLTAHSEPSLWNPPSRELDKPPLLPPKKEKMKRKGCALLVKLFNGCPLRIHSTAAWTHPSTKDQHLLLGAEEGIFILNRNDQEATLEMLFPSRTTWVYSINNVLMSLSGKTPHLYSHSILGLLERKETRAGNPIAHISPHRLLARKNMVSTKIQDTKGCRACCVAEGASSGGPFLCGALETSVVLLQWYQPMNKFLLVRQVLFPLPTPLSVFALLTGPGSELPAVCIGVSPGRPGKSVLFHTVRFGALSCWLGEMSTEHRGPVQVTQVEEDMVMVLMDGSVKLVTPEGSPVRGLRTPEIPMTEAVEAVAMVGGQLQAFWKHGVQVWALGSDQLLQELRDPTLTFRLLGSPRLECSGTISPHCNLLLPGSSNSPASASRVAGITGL
Chain of Bone morphogenetic protein receptor type-1B (Homo sapiens) (O00238 whole entry): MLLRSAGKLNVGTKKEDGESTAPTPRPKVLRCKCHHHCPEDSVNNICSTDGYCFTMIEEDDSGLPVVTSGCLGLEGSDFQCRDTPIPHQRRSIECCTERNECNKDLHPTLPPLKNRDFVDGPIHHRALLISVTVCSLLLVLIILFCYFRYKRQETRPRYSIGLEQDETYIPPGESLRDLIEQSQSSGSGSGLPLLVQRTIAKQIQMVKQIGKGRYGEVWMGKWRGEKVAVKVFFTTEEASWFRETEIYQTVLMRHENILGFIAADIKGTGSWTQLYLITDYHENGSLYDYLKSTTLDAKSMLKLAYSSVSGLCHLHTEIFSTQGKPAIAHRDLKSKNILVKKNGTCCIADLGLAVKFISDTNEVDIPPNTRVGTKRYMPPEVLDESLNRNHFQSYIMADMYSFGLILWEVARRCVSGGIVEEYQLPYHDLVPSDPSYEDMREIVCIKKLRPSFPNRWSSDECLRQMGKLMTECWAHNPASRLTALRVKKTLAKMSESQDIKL
Chain of Tyrosine-protein kinase Lck (Homo sapiens) (P06239 2-509 limits assumed): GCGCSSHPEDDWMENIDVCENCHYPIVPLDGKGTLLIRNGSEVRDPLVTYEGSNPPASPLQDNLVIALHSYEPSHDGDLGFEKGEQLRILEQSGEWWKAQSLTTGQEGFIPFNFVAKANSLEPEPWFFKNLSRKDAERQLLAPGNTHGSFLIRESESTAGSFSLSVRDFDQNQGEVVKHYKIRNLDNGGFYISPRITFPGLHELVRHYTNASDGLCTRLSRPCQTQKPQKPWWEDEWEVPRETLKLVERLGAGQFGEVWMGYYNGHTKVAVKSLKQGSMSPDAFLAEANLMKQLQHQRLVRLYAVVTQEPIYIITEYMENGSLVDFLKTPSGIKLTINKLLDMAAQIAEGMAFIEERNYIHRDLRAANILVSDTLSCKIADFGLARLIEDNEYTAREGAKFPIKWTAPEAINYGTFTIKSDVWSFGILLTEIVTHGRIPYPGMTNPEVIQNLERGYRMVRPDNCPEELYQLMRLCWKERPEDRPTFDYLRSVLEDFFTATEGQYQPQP

For `N=C1NC(=O)/C(=C\c2ccc(-c3cccc([N+](=O)[O-])c3)o2)S1`, the Activity amounted to 98% in assay [1]; 82% in assay [2]; 103% in assay [3]; 99% in [4]; 100% in [5]; 100% in [6]. The Activity in assay [7] came out at 95%; in the assay filed under Homo sapiens [8], 93%; in [9], 93%; in the assay listed under Homo sapiens [10], 71%; in assay [11], 97%; in assay [12], 73%. For the same compound, the Activity in assay [13] stood at 100%; in [14], 106%; in assay [15], 103%; in [16], 76%; in [17] it was 102%; in assay [18], 96%. Besides, the Activity is 92% in [19], 95% in [20], 88% in [21] and 104% in assay [22].

For the compound `C=CCOC(=O)c1cc(-c2ccc(/C=C3/NC(=S)NC3=O)o2)ccc1Cl`, the Activity in assay [1] was determined as 103%; in [2], 79%; in assay [3], 106%; in assay [4], 108%; in assay [5], 99%; in assay [6], 79%. Moreover, the Activity was 88% in assay [7]; 93% in the assay filed under Homo sapiens [8]; 76% in assay [9]; 82% in the assay filed under Homo sapiens [10]; 98% in assay [11]; 65% in [12]. Further, the Activity in assay [13] worked out at 87%; in [14], 99%; in [15] it was 90%; in assay [16] it was 90%; in assay [17], 104%; in assay [18], 107%. The Activity in assay [19] is 94%; in assay [20], 100%; in assay [21], 85%; in assay [22], 98%.
